# PMC9425443 (RSC Advances, 2022)
# Counter-ions that a name gives are not always drawn.
# Tests used:
# CYP142A1 C281S [1] = target: T1, CYP142A1 C281S (Mycobacterium tuberculosis, UniProt P9WPL5, C281S); type: biochemical
# CYP142A1 C118S [2] = target: T2, CYP142A1 C118S (Mycobacterium tuberculosis, UniProt P9WPL5, C118S); type: biochemical
# CYP142A1 C296S [3] = target: T3, CYP142A1 C296S (Mycobacterium tuberculosis, UniProt P9WPL5, C296S); type: biochemical
# CYP142A1 C123S [4] = target: T4, CYP142A1 C123S (Mycobacterium tuberculosis, UniProt P9WPL5, C123S); type: biochemical
# CYP142A1 C110S [5] = target: T5, CYP142A1 C110S (Mycobacterium tuberculosis, UniProt P9WPL5, C110S); type: biochemical
# CYP142A1 C316S [6] = target: T6, CYP142A1 C316S (Mycobacterium tuberculosis, UniProt P9WPL5, C316S); type: biochemical
# CYP142A1 C123S [7] = target: T4, CYP142A1 C123S; details: pH 7.4
# CYP142A1 C118S [8] = target: T2, CYP142A1 C118S; details: pH 7.4
# CYP142A1 C316S [9] = target: T6, CYP142A1 C316S; details: pH 7.4
# CYP142A1 C296S [10] = target: T3, CYP142A1 C296S; details: pH 7.4
# CYP142A1 C110S [11] = target: T5, CYP142A1 C110S; details: pH 7.4
# CYP142A1 C281S [12] = target: T1, CYP142A1 C281S; details: pH 7.4
Compound,kcat (CYP142A1 C281S [1]) [s⁻¹],kcat (CYP142A1 C118S [2]) [s⁻¹],kcat (CYP142A1 C296S [3]) [s⁻¹],kcat (CYP142A1 C123S [4]) [s⁻¹],kcat (CYP142A1 C110S [5]) [s⁻¹],kcat (CYP142A1 C316S [6]) [s⁻¹],Kd (CYP142A1 C123S [7]) [µM],Kd (CYP142A1 C118S [8]) [µM],Kd (CYP142A1 C316S [9]) [µM],Kd (CYP142A1 C296S [10]) [µM],Kd (CYP142A1 C110S [11]) [µM],Kd (CYP142A1 C281S [12]) [µM]
CC(C)CCC[C@@H](C)[C@H]1CC[C@H]2[C@@H]3CCC4=CC(=O)CC[C@]4(C)[C@H]3CC[C@]12C [Cholest-4-en-3-one],0.0917 ± 0.00617,0.0933 ± 0.00633,0.0767 ± 0.00583,0.085 ± 0.00617,0.11 ± 0.0113,0.0783 ± 0.00617,,,,,,
CC(C)CCC[C@@H](C)[C@H]1CC[C@H]2[C@@H]3CC=C4C[C@@H](OS(=O)(=O)O)CC[C@]4(C)[C@H]3CC[C@]12C [Cholesteryl sulfate],,,,,,,35 ± 9.3,33 ± 4.3,26 ± 8,25 ± 9.6,37 ± 8.7,37 ± 8.8
Cholesteryl propionate,,,,,,,23 ± 5,43 ± 10,46 ± 6.8,48 ± 5.9,35 ± 4.9,47 ± 7.6
